This note sets out measurements from patent US8802692B2, “Synergistic effects between sphingosine-1-phosphate receptor antagonists and antimicrotubule agents” (Exelixis, Inc., priority 2008, dated 2014).

Holding throughout (assay type): in vivo, Nude mice
For assay [1], the system named is human MDA-MB-231 breast cancer cells (ATCC#HTB-26). Description: MDA-MB-231 breast cancer xenograft, S1P1R antagonist + docetaxel. As to conditions: docetaxel alone 7 mg/kg q3d ip; start 96 mgs. How it is done: In this experiment, a maximum efficacy dose of an S1P1R receptor antagonist was used with an optimal dose of docetaxol (Haorui Pharma Chem, Inc; CAS#114977-28-5). Compound #2, 50, 52, or 75 were used in these experiments. Nude mice (athymic female mice, Taconic Farms, Inc., 10 animals per group) were inoculated subcutaneously with human MDA-MB-231 breast cancer cells (ATCC#HTB-26) (1×10^6 cells per animal). After tumors were allowed to grow for 17 days, one group of animals was treated with docetaxel at a dose of 7 mg/kg q3d ip. One group of animals was treated with a specific dose of S1P1R receptor antagonist and the same dose of docetaxel using the same schedule used for the individual docetaxel group. Finally, a control group was treated with the vehicles used for each agent individually. Tumor dimensions were measured by calipers and then converted to weight using the formula: tumor weight (mg)=[tumor volume=length (mm)×width^2(mm^2)]/2. Animals were also monitored for weight loss as an indicator of signs of toxicity. The S1P1R receptor antagonist was formulated in a composition containing 10% NMP (n-methyl pyrrolidone)+90% corn oil. […]
Cells were inoculated subcutaneously on day 0 and allowed to grow for 17 days. […] Dosing continued for 7 cycles (q3d) and tumors in each of the three groups were measured and averaged. […]

The subject of assay [2] is human non-small cell lung carcinoma cells (ATCC #HTB-56). Description: Non-small cell lung carcinoma xenograft (Calu-6 XN model), S1P1R antagonist + paclitaxel. The following applies: paclitaxel alone 15 mg/kg q3d ip; dosing day 9 to day 31; control about 1500 mgs. How it is done:
In this experiment, a maximum efficacy dose of an S1P1R receptor antagonist was used with an optimal dose of paclitaxel (MP Biomedicals cat #193532). Nude mice (athymic female mice, Taconic Farms, Inc., 10 animals per group) were inoculated subcutaneously with human non-small cell lung carcinoma cells (ATCC #HTB-56) (1×10^6 cells per animal). After tumors were allowed to grow for 9 days, one group of animals was treated with a S1P1R receptor antagonist (100 mg/kg qd po). A second group of animals was treated with paclitaxel at a dose of 15 mg/kg q3d ip. A third group of animals was treated with a S1P1R receptor antagonist and paclitaxel using the same dose and schedule used for the individual agents. A fourth control group was treated with the vehicles used for each agent individually. Tumor dimensions were measured by calipers and then converted to weight using the formula: tumor weight (mg)=[tumor volume=length (mm)×[…]]/2. Animals were also monitored for weight loss as an indicator of signs of toxicity. […]
Cells were inoculated subcutaneously on day 0 and allowed to grow for 9 days. […] Dosing continued until day 31 and tumors from some animals in each of the four groups were measured and averaged. Some animals in the paclitaxel group and the combined treatment group were monitored after treatment stopped for a period of time. […]

Assay [3] deals with human MDA-MB-231 cells breast cancer cells (ATCC #HTB-26). The experiment in a line: MDA-MB-231 breast cancer xenograft, S1P1R antagonist + paclitaxel. The following applies: paclitaxel alone 7.5 mg/kg q3d ip; start 100 mgs. How it is done: In this experiment, 4 different doses of an S1P1R receptor antagonist, 0.3 mgs/kg, 3 mgs/kg, 10 mgs/kg or 30 mgs/kg was used with an optimal dose of paclitaxel (MP Biomedicals cat #193532). Nude mice (athymic female mice, Taconic Farms, Inc., 10 animals per group) were inoculated subcutaneously with human MDA-MB-231 cells breast cancer cells (ATCC #HTB-26) (1×10^6 cells per animal). After tumors were allowed to grow for 21 days, one group of animals was treated with paclitaxel at a dose of 7.5 mg/kg q3d ip. Four groups of animals were treated with a specific concentration of S1P1R receptor antagonist and the same concentration of paclitaxel using the same schedule used for the individual paclitaxel group. Finally, a control group was treated with the vehicles used for each agent individually. Tumor dimensions were measured by calipers and then converted to weight using the formula: tumor weight (mg)=[tumor volume=length (mm)×[…]]/2. Animals were also monitored for weight loss as an indicator of signs of toxicity. The S1P1R Receptor antagonist was formulated in a compostion containing 10% NMP (n-methyl pyrrolidone)+90% corn oil. […]
Cells were inoculated subcutaneously on day 0 and allowed to grow for 21 days. […] Dosing continued for 19 days and tumors in each of the four groups were measured and averaged. […]

The test system of assay [4] is human MDA-MB-231 breast cancer cells (ATCC# HTB-26). Description: MDA-MB-231 breast cancer xenograft, S1P1R antagonist + vincristine. As to conditions: start 95 mgs. How it is done: In this experiment, a maximum efficacy dose of an S1P1R receptor antagonist was used with doses of vincristine (Yes Pharma, Ltd., CAS#2068-78-2, Lot#80702). Compound #2, 50, 52, or 75 were used in these experiments. Nude mice (athymic female mice, Taconic Farms, Inc., 10 animals per group) were inoculated subcutaneously with human MDA-MB-231 breast cancer cells (ATCC# HTB-26) (1×10^6 cells per animal). After tumors were allowed to grow for 19 days, two groups of animals were treated with vincristine at doses of 0.1 or 1 mg/kg q3d iv. One group of animals was treated with a specific concentration of S1P1R receptor antagonist. Two groups of animals were treated with a specific dose of S1P1R receptor antagonist and the same dose of vincristine using the same schedule used for the individual vincristine groups. Finally, a control group was treated with the vehicles used for each agent individually. Tumor dimensions were measured by calipers and then converted to weight using the formula: tumor weight (mg)=[tumor volume=length (mm)×width^2(mm^2)]/2. Animals were also monitored for weight loss as an indicator of signs of toxicity. […]
Cells were inoculated subcutaneously on day 0 and allowed to grow for 19 days. […] Dosing continued for 8 cycles (q3d) and tumors in each of the six groups were measured and averaged. […]

With `CC(=O)O[C@@]12CO[C@@H]1C[C@H](O)[C@@]1(C)C(=O)[C@H](O)C3=C(C)[C@@H](OC(=O)[C@H](O)[C@@H](NC(=O)OC(C)(C)C)c4ccccc4)C[C@@](O)([C@@H](OC(=O)c4ccccc4)[C@H]21)C3(C)C` [docetaxel], the “average tumor weight after 7 cycles of treatment” value in assay [1] is recorded as “about 310 mgs”. Regarding `CC(=O)O[C@H]1C(=O)[C@@]2(C)[C@H]([C@H](OC(=O)c3ccccc3)[C@]3(O)C[C@H](OC(=O)[C@H](O)[C@@H](NC(=O)c4ccccc4)c4ccccc4)C(C)=C1C3(C)C)[C@]1(OC(C)=O)CO[C@@H]1C[C@@H]2O` [paclitaxel], the “average tumor weight after treatment” value in assay [2] was “about 550 mgs”. Moreover, the “average tumor weight after 19 days of treatment” value in assay [3] is on record as “about 325 mgs”. As for `CC[C@]1(O)C[C@H]2CN(CCc3c([nH]c4ccccc34)[C@@](C(=O)OC)(c3cc4c(cc3OC)N(C=O)[C@H]3[C@@](O)(C(=O)OC)[C@H](OC(C)=O)[C@]5(CC)C=CCN6CC[C@]43[C@@H]65)C2)C1` [vincristine], the “average tumor weight after 8 cycles of treatment” value in assay [4] (vincristine alone 0.1 mg/kg q3d iv) stood at 659 mg; in assay [4] (vincristine alone 1 mg/kg q3d iv), 26 mg.
